{"source": "ChEMBL document CHEMBL3390836", "about": "“Mannich- and LedererManasse-based analogues of the natural product S-(+)-curcuphenol as cancer proliferation and migration inhibitors” (Medchemcomm, 2012)", "assay_type_in_all_cases": "functional", "key": {"[1]": {"tested_on": "MDA-MB-435", "assay": "Cytotoxicity against human MDA-MB-435 cells after 48 hrs by SRB assay", "details": "MDA-MB-435, 48 h"}, "[2]": {"assay": "Cytotoxicity against human OVCAR5 cells assessed as cell growth at 10^-4 M after 48 hrs by SRB assay relative to control", "details": "OVCAR-5, 48 h, read-out: Activity"}, "[3]": {"tested_on": "SN12C", "assay": "Cytotoxicity against human SN12C cells assessed as cell growth at 10^-6 M after 48 hrs by SRB assay relative to control", "details": "read-out: Activity"}, "[4]": {"tested_on": "MOLT-4", "assay": "Cytotoxicity against human MOLT4 cells assessed as cell growth at 10^-6 M after 48 hrs by SRB assay relative to control", "details": "MOLT-4, 48 h, read-out: Activity"}, "[5]": {"tested_on": "MDA-MB-468", "assay": "Cytotoxicity against human MDA-MB-468 cells after 48 hrs by SRB assay", "details": "MDA-MB-468, 48 h"}, "[6]": {"tested_on": "SK-MEL-2", "assay": "Cytotoxicity against human SK-MEL-2 cells assessed as cell growth at 10^-6 M after 48 hrs by SRB assay relative to control", "details": "SK-MEL-2, 48 h, read-out: Activity"}, "[7]": {"tested_on": "LOX IMVI", "assay": "Cytotoxicity against human LOXIMVI cells assessed as cell growth at 10^-7 M after 48 hrs by SRB assay relative to control", "details": "read-out: Activity"}, "[8]": {"tested_on": "786-0", "assay": "Cytotoxicity against human 786-0 cells after 48 hrs by SRB assay", "details": "786-0, 48 h"}, "[9]": {"tested_on": "SW-620", "assay": "Cytotoxicity against human SW620 cells after 48 hrs by SRB assay", "details": "SW-620, 48 h"}, "[10]": {"tested_on": "SK-MEL-2", "assay": "Cytotoxicity against human SK-MEL-2 cells assessed as cell growth at 10^-7 M after 48 hrs by SRB assay relative to control", "details": "SK-MEL-2, 48 h, read-out: Activity"}, "[11]": {"tested_on": "A549", "assay": "Cytotoxicity against human A549 cells after 48 hrs by SRB assay", "details": "A549, 48 h"}, "[12]": {"tested_on": "SF-539", "assay": "Cytotoxicity against human SF539 cells assessed as cell growth at 10^-8 M after 48 hrs by SRB assay relative to control", "details": "SF-539, 48 h, read-out: Activity"}, "[13]": {"tested_on": "U-251", "assay": "Cytotoxicity against human U251 cells assessed as cell growth at 10^-8 M after 48 hrs by SRB assay relative to control", "details": "U-251, 48 h, read-out: Activity"}, "[14]": {"tested_on": "CAKI-1", "assay": "Cytotoxicity against human Caki1 cells after 48 hrs by SRB assay", "details": "CAKI-1, 48 h"}, "[15]": {"tested_on": "DU-145", "assay": "Cytotoxicity against human DU145 cells assessed as cell growth at 10^-7 M after 48 hrs by SRB assay relative to control", "details": "DU-145, 48 h, read-out: Activity"}, "[16]": {"assay": "Cytotoxicity against human Hs 578T cells assessed as cell growth at 10^-8 M after 48 hrs by SRB assay relative to control", "details": "read-out: Activity"}, "[17]": {"tested_on": "HCC 2998", "assay": "Cytotoxicity against human HCC2998 cells assessed as cell growth at 10^-6 M after 48 hrs by SRB assay relative to control", "details": "HCC 2998, 48 h, read-out: Activity"}, "[18]": {"tested_on": "KM12", "assay": "Cytotoxicity against human KM12 cells assessed as cell growth at 10^-8 M after 48 hrs by SRB assay relative to control", "details": "KM12, 48 h, read-out: Activity"}, "[19]": {"tested_on": "MDA-MB-231", "assay": "Cytotoxicity against human MDA-MB-231 cells assessed as cell growth at 10^-6 M after 48 hrs by SRB assay relative to control", "details": "MDA-MB-231, 48 h, read-out: Activity"}, "[20]": {"assay": "Cytotoxicity against human NCI-ADR-RES cells after 48 hrs by SRB assay"}, "[21]": {"tested_on": "T47D", "assay": "Cytotoxicity against human T47D cells after 48 hrs by SRB assay"}, "[22]": {"tested_on": "MDA-MB-435", "assay": "Cytotoxicity against human MDA-MB-435 cells assessed as cell growth at 10^-7 M after 48 hrs by SRB assay relative to control", "details": "MDA-MB-435, 48 h, read-out: Activity"}, "[23]": {"tested_on": "MDA-MB-468", "assay": "Cytotoxicity against human MDA-MB-468 cells assessed as cell growth at 10^-8 M after 48 hrs by SRB assay relative to control", "details": "MDA-MB-468, 48 h, read-out: Activity"}, "[24]": {"tested_on": "SF-539", "assay": "Cytotoxicity against human SF539 cells assessed as cell growth at 10^-4 M after 48 hrs by SRB assay relative to control", "details": "SF-539, 48 h, read-out: Activity"}, "[25]": {"tested_on": "U-251", "assay": "Cytotoxicity against human U251 cells assessed as cell growth at 10^-7 M after 48 hrs by SRB assay relative to control", "details": "U-251, 48 h, read-out: Activity"}, "[26]": {"assay": "Cytotoxicity against human NCI-ADR-RES cells assessed as cell growth at 10^-6 M after 48 hrs by SRB assay relative to control", "details": "read-out: Activity"}, "[27]": {"tested_on": "LOX IMVI", "assay": "Cytotoxicity against human LOXIMVI cells after 48 hrs by SRB assay"}, "[28]": {"tested_on": "A549", "assay": "Cytotoxicity against human A549 cells assessed as cell growth at 10^-6 M after 48 hrs by SRB assay relative to control", "details": "A549, 48 h, read-out: Activity"}, "[29]": {"assay": "Cytotoxicity against human HCT15 cells after 48 hrs by SRB assay", "details": "HCT-15, 48 h"}, "[30]": {"tested_on": "A498", "assay": "Cytotoxicity against human A498 cells assessed as cell growth at 10^-7 M after 48 hrs by SRB assay relative to control", "details": "A498, 48 h, read-out: Activity"}, "[31]": {"tested_on": "NCI-H23", "assay": "Cytotoxicity against human NCI-H23 cells after 48 hrs by SRB assay", "details": "NCI-H23, 48 h"}, "[32]": {"assay": "Cytotoxicity against human OVCAR5 cells after 48 hrs by SRB assay", "details": "OVCAR-5, 48 h"}, "[33]": {"tested_on": "ACHN", "assay": "Cytotoxicity against human ACHN cells assessed as cell growth at 10^-8 M after 48 hrs by SRB assay relative to control", "details": "read-out: Activity"}, "[34]": {"assay": "Cytotoxicity against human HCT116 cells assessed as cell growth at 10^-7 M after 48 hrs by SRB assay relative to control", "details": "HCT-116, 48 h, read-out: Activity"}, "[35]": {"tested_on": "SF-539", "assay": "Cytotoxicity against human SF539 cells assessed as cell growth at 10^-7 M after 48 hrs by SRB assay relative to control", "details": "SF-539, 48 h, read-out: Activity"}, "[36]": {"tested_on": "SF-268", "assay": "Cytotoxicity against human SF268 cells assessed as cell growth at 10^-7 M after 48 hrs by SRB assay relative to control", "details": "SF-268, 48 h, read-out: Activity"}, "[37]": {"details": "read-out: LC50 (the source's name)"}}}
{"smiles": "CC(C)=CCC[C@H](C)c1ccc(C)c2c1OCN(CC1CCNCC1)C2", "values": [{"measurement": "GI50", "setting": "[1]", "value": 6.48, "unit": "µM"}, {"measurement": "TGI", "setting": "[1]", "value": 20.9, "unit": "µM"}, {"measurement": "CC50", "setting": "[1]; [37]", "value": 53.4, "unit": "µM"}, {"measurement": "growth at 100 µM", "setting": "[2]", "value": -90, "unit": "%"}, {"measurement": "growth at 1 µM", "setting": "[3]", "value": 102, "unit": "%"}, {"measurement": "growth at 1 µM", "setting": "[4]", "value": 100, "unit": "%"}, {"measurement": "GI50", "setting": "[5]", "value": 5.01, "unit": "µM"}, {"measurement": "LC50", "setting": "[5]", "value": 53.1, "unit": "µM"}, {"measurement": "TGI", "setting": "[5]", "value": 18.4, "unit": "µM"}, {"measurement": "growth at 1 µM", "setting": "[6]", "value": 120, "unit": "%"}, {"measurement": "growth at 0.1 µM", "setting": "[7]", "value": 92, "unit": "%"}, {"measurement": "GI50", "setting": "[8]", "value": 12.1, "unit": "µM"}, {"measurement": "LC50", "setting": "[8]", "value": 56.9, "unit": "µM"}, {"measurement": "TGI", "setting": "[8]", "value": 26.3, "unit": "µM"}, {"measurement": "GI50", "setting": "[9]", "value": 9.87, "unit": "µM"}, {"measurement": "TGI", "setting": "[9]", "value": 23.1, "unit": "µM"}, {"measurement": "CC50", "setting": "[9]; [37]", "value": 53.5, "unit": "µM"}, {"measurement": "growth at 0.1 µM", "setting": "[10]", "value": 111, "unit": "%"}, {"measurement": "GI50", "setting": "[11]", "value": 13, "unit": "µM"}, {"measurement": "LC50", "setting": "[11]", "value": 59.7, "unit": "µM"}, {"measurement": "TGI", "setting": "[11]", "value": 27.8, "unit": "µM"}, {"measurement": "growth at 0.01 µM", "setting": "[12]", "value": 91, "unit": "%"}, {"measurement": "growth at 0.01 µM", "setting": "[13]", "value": 99, "unit": "%"}, {"measurement": "GI50", "setting": "[14]", "value": 17.7, "unit": "µM"}, {"measurement": "TGI", "setting": "[14]", "value": 36.8, "unit": "µM"}, {"measurement": "CC50", "setting": "[14]; [37]", "value": 76.3, "unit": "µM"}, {"measurement": "growth at 0.1 µM", "setting": "[15]", "value": 94, "unit": "%"}, {"measurement": "growth at 0.01 µM", "setting": "[16]", "value": 98, "unit": "%"}, {"measurement": "growth at 1 µM", "setting": "[17]", "value": 104, "unit": "%"}, {"measurement": "growth at 0.01 µM", "setting": "[18]", "value": 99, "unit": "%"}, {"measurement": "growth at 1 µM", "setting": "[19]", "value": 99, "unit": "%"}, {"measurement": "GI50", "setting": "[20]", "value": 16.8, "unit": "µM"}, {"measurement": "LC50 (lethal concentration, 50% cell kill)", "setting": "[20]", "value": 71.8, "unit": "µM"}, {"measurement": "TGI", "setting": "[20]", "value": 34.8, "unit": "µM"}, {"measurement": "GI50", "setting": "[21]", "value": 15.2, "unit": "µM"}, {"measurement": "LC50 (concentration killing 50% of cells)", "setting": "[21]", "value": 72.8, "unit": "µM"}, {"measurement": "TGI", "setting": "[21]", "value": 33.2, "unit": "µM"}, {"measurement": "growth at 0.1 µM", "setting": "[22]", "value": 96, "unit": "%"}, {"measurement": "growth at 0.01 µM", "setting": "[23]", "value": 94, "unit": "%"}, {"measurement": "growth at 100 µM", "setting": "[24]", "value": -93, "unit": "%"}, {"measurement": "growth at 0.1 µM", "setting": "[25]", "value": 101, "unit": "%"}, {"measurement": "growth at 1 µM", "setting": "[26]", "value": 102, "unit": "%"}, {"measurement": "GI50", "setting": "[27]", "value": 5.87, "unit": "µM"}, {"measurement": "LC50 (concentration killing 50% of cells)", "setting": "[27]", "value": 54.6, "unit": "µM"}, {"measurement": "TGI", "setting": "[27]", "value": 20.2, "unit": "µM"}, {"measurement": "growth at 1 µM", "setting": "[28]", "value": 96, "unit": "%"}, {"measurement": "GI50", "setting": "[29]", "value": 6.51, "unit": "µM"}, {"measurement": "TGI", "setting": "[29]", "value": 21.1, "unit": "µM"}, {"measurement": "CC50", "setting": "[29]; [37]", "value": 54, "unit": "µM"}, {"measurement": "growth at 0.1 µM", "setting": "[30]", "value": 82, "unit": "%"}, {"measurement": "GI50", "setting": "[31]", "value": 15.7, "unit": "µM"}, {"measurement": "LC50", "setting": "[31]", "value": 72, "unit": "µM"}, {"measurement": "TGI", "setting": "[31]", "value": 33.6, "unit": "µM"}, {"measurement": "GI50", "setting": "[32]", "value": 14.3, "unit": "µM"}, {"measurement": "TGI", "setting": "[32]", "value": 28.8, "unit": "µM"}, {"measurement": "CC50", "setting": "[32]; [37]", "value": 57.7, "unit": "µM"}, {"measurement": "growth at 0.01 µM", "setting": "[33]", "value": 100, "unit": "%"}, {"measurement": "growth at 0.1 µM", "setting": "[34]", "value": 100, "unit": "%"}, {"measurement": "growth at 0.1 µM", "setting": "[35]", "value": 94, "unit": "%"}, {"measurement": "growth at 0.1 µM", "setting": "[36]", "value": 99, "unit": "%"}]}
